This is an account of results in patent US8450300B2 (priority 2009, dated 2013).

Where two headings read alike, the source gives them in different places. Bounds are passed on as bounds.

For series [1], the system named is WT isolates. Description: Synergy by the checkerboard method. It counts as cell-based. To be noted: FA/co-drug combination, count. The procedure: (§1) CLSI broth microdilution (BMD) and anaerobic agar dilution (AD) methods were performed. Modifications of standard test methods included adding 10% human serum, adjusting the medium pH to 5, 6, and 8, and synergy was assessed by the checkerboard method.

For series [2], the system named is 217 S. aureus Canadian isolates. Format: cell-based. To be noted: Canadian S. aureus isolates, comparators. As to the method: as §1
Series [3] has as its system S. aureus. Description: Reference broth microdilution susceptibility testing (CLSI M07-A8), Canadian isolates. It counts as cell-based. To be noted: for R rate: overall S. aureus population; for number of isolates inhibited: Staphylococcus aureus. From the text: Methods: To determine a contemporary susceptibility (S) spectrum pattern, 153 GP isolates (123 S. aureus, 15 coagulase-negative staphylococci [CoNS] and 15 S. pyogenes [SPYO]) were collected from 5 Canadian medical centers between 2001 and 2006.
(In general: Broth dilution looks for growth in wells or tubes with falling amounts of substance.)

Series [4] relates to WT isolates. Description: Single-step mutational rates to resistance. It counts as cell-based.
For series [5], the system named is methicillin-resistant S. aureus (MRSA) strain USA 300. Description: Hollow fiber pharmacodynamic model, resistance potential. It counts as cell-based. To be noted: 600 mg q12h. As to the method: A hollow fiber model was used to evaluate CEM-102 resistance potential in methicillin-resistant S. aureus (MRSA) strain USA 300 (Network of Antimicrobial Resistance in Staphylococcus aureus (NARSA), Chantilly, Va.). USA 300 is a highly virulent strain of MRSA and is the most common community-associated MRSA isolate in the USA. MIC values were determined in accordance with Clinical and Laboratory Standards Institute (CLSI).
The hollow fiber model comprised a two-compartment hollow fiber model (Louie et al. Antimicrob Agents Chemother 52:2486-2496(2008)) consisting of a volume of 15 mL in the central compartment, with multiple ports for the removal of broth, delivery of antibiotics, and collection of bacterial and antimicrobial samples. […] All experiments were performed in duplicate.
Hollow fibers contain 15 ml of media was prepared and inoculated with 10^6 colony forming units (CFU)/mL USA 300 bacteria. One of three different dosing regimens of […] was then applied to the fibers: (1) […] q12h; (2) 1200 mg/ml×2, followed by […], q12h; (3) 1500 mg/ml×2, followed by […], q12h.

Series [6] has as its system Gram-positive (GP) species. The series is described as follows: CLSI broth microdilution / anaerobic agar dilution MIC, spectrum study. Format: cell-based. Conditions: all GP isolates. As to the method: as §1
Series [7] has as its system WT isolates. The series is described as follows: MIC with 10% human serum or adjusted medium pH. Format: cell-based. The procedure:
as §1

The test system of series [8] is S. aureus. The series is described as follows: MIC of S. aureus in humans (description). Format: cell-based. Conditions: Staphylococcus aureus.
Series [9] has as its system E. brevis, M. catarrhalis and N. meningitidis. The series is described as follows: CLSI MIC, spectrum study. Format: cell-based. As to the method:
as §1

The subject of a further series is GN species. Description: CLSI MIC, spectrum study. It counts as cell-based. Conditions: all GN except E. brevis, M. catarrhalis, N. meningitidis. As to the method:
as §1

For series [10] the following is noted: cited from earlier work.

For the compound gentamicin, in the series on WT isolates [1], the Additive is recorded as 3, the Antagonism came out at 0, the Indeterminate was found to be 0 and the Indifferent came out at 1. For the same compound, in the series on WT isolates [1], the “Synergy: Complete” value was 1 and the “Synergy: Partial” value turned out to be 1.
`CCC[C@@H]1C[C@@H](C(=O)N[C@@H]([C@H]2O[C@H](SC)[C@H](O)[C@@H](O)[C@H]2O)[C@H](C)Cl)N(C)C1` [clindamycin]: in [2], the resistance rates is 30.9%. The same compound registered a R rate with S. aureus [3] of 28.5%.
In general, MIC refers to the lowest concentration found to suppress growth. Regarding `CC(=O)O[C@H]1C[C@@]2(C)[C@@H](C[C@@H](O)[C@H]3[C@@]4(C)CC[C@@H](O)[C@@H](C)[C@@H]4CC[C@@]32C)/C1=C(\CCC=C(C)C)C(=O)O` [FA, Fusidic acid], the results for the single-step mutational rate with WT isolates [4] (4×MIC) and in the series with WT isolates [4] (16×MIC) were 1.2×10^−6 and 9.8×10^−8, respectively. The “outcome in hollow fiber model” value in series [5] is “regrowth and development of resistance by 24 h and 48 h”. For the same compound, the “MIC values, range” value in series [6] was 0.06 to 32 µg/mL. Moreover, the “increase in MIC results” value in the series on WT isolates [7] (10% serum added) was 4 fold. In addition, the “effect of lower media pH on protein binding effects” value with WT isolates [7] (medium pH 5.0-6.0) is reported as “decreased negative protein binding effects”. Also, the number of isolates inhibited with S. aureus [3] (years tested 2001-2002, read-out: No. inhibited at MIC (μg/mL) of: 0.06) turned out to be 8 µg/mL; in the series on S. aureus [3] (years tested 2001-2002, read-out: No. inhibited at MIC (μg/mL) of: 0.12), 29 µg/mL; in the series with S. aureus [3] (years tested 2001-2002, read-out: No. inhibited at MIC (μg/mL) of: 0.25) it was 1 µg/mL; in the series with S. aureus [3] (years tested 2001-2002, read-out: No. inhibited at MIC (μg/mL) of: ≧2) it was 2 µg/mL; with S. aureus [3] (years tested 2003-2004, read-out: No. inhibited at MIC (μg/mL) of: 0.06), 6 µg/mL; in the series with S. aureus [3] (years tested 2003-2004, read-out: No. inhibited at MIC (μg/mL) of: 0.12) it was 33 µg/mL. Besides, the number of isolates inhibited with S. aureus [3] (years tested 2003-2004, read-out: No. inhibited at MIC (μg/mL) of: ≧2) was determined as 3 µg/mL; with S. aureus [3] (years tested 2005-2006, read-out: No. inhibited at MIC (μg/mL) of: 0.06) it was 2 µg/mL; with S. aureus [3] (years tested 2005-2006, read-out: No. inhibited at MIC (μg/mL) of: 0.12) it was 32 µg/mL; in the series with S. aureus [3] (years tested 2005-2006, read-out: No. inhibited at MIC (μg/mL) of: 0.25) it was 2 µg/mL; in the series with S. aureus [3] (years tested 2005-2006, read-out: No. inhibited at MIC (μg/mL) of: ≧2), 5 µg/mL. Besides, the MIC is 2.5 µg/mL in the series with S. aureus [8], 0.12 to 0.5 µg/mL in series [9] and no less than 2 µg/mL in the series on GN species. Besides, the protein binding in series [10] is on record as 95-97%.
As to `CN[C@H](CC(C)C)C(=O)N[C@H]1C(=O)N[C@@H](CC(N)=O)C(=O)N[C@H]2C(=O)N[C@H]3C(=O)N[C@H](C(=O)N[C@H](C(=O)O)c4cc(O)cc(O)c4-c4cc3ccc4O)[C@H](O)c3ccc(c(Cl)c3)Oc3cc2cc(c3O[C@@H]2O[C@H](CO)[C@@H](O)[C@H](O)[C@H]2O[C@H]2C[C@](C)(N)[C@H](O)[C@H](C)O2)Oc2ccc(cc2Cl)[C@H]1O` [Vancomycin], in the series with WT isolates [1], the Additive is reported as 2, the Antagonism came to 0, the Indeterminate is listed as 0 and the Indifferent turned out to be 4. Besides, in the series with WT isolates [1], the “Synergy: Complete” value is on record as 0 and the “Synergy: Partial” value was 0.
As for `C[C@H]1COc2c(N3CCN(C)CC3)c(F)cc3c(=O)c(C(=O)O)cn1c23` [levofloxacin], in the series on WT isolates [1], the Additive was 0, the Antagonism came out at 0, the Indeterminate worked out at 2 and the Indifferent is on record as 4. Moreover, in the series with WT isolates [1], the “Synergy: Complete” value is reported as 0 and the “Synergy: Partial” value was 0.
In the case of `CO[C@H]1/C=C/O[C@@]2(C)Oc3c(C)c(O)c4c(O)c(c(/C=N/N5CCN(C)CC5)c(O)c4c3C2=O)NC(=O)/C(C)=C\C=C\[C@H](C)[C@H](O)[C@@H](C)[C@@H](O)[C@@H](C)[C@H](OC(C)=O)[C@@H]1C` [Rifampin, rifampin], in the series with WT isolates [1], the Additive is reported as 1, the Antagonism was found to be 0, the Indeterminate is recorded as 0 and the Indifferent was found to be 0. Further, in the series on WT isolates [1], the “Synergy: Complete” value is recorded as 0 and the “Synergy: Partial” value came out at 5.
For the compound `CC[C@H]1OC(=O)[C@H](C)[C@@H](O[C@H]2C[C@@](C)(OC)[C@@H](O)[C@H](C)O2)[C@H](C)[C@@H](O[C@@H]2O[C@H](C)C[C@H](N(C)C)[C@H]2O)[C@](C)(O)C[C@@H](C)C(=O)[C@H](C)[C@@H](O)[C@]1(C)O` [erythromycin], in series [2], the resistance rates is recorded as 52.1%. This compound had a R rate with S. aureus [3] of 52.0%.
With `Cc1onc(-c2ccccc2)c1C(=O)N[C@@H]1C(=O)N2[C@@H]1SC(C)(C)[C@@H]2C(=O)O` [Oxacillin], in the series on WT isolates [1], the Additive came to 1, the Antagonism is 0, the Indeterminate worked out at 1 and the Indifferent is reported as 3. In the series on WT isolates [1], the “Synergy: Complete” value was 0 and the “Synergy: Partial” value was 1.
